Test results as given in PubChem BioAssay AID2744 (NMMLSC, 2010).
Active and inactive are the calls of the source.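 How the source made its calls: active means fitted half-maximal concentration for changing reporter fluorescence at or below a set limit; inactive means the rest.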

Target: Citrate synthase, peroxisomal (Saccharomyces cerevisiae (strain ATCC 204508 / S288c)) (UniProt P08679)
Test: CIT2-GFP expression modulators in yeast, dose response, flow cytometry, MLPCN hits (AID 2744)
Settings: S. cerevisiae CIT2-GFP strain, 3 h; for GFP fluorescence, higher = induction: at 33 µM (top of the series)

Sequence of Citrate synthase, peroxisomal (Saccharomyces cerevisiae (strain ATCC 204508 / S288c)) (P08679 whole entry, looked up): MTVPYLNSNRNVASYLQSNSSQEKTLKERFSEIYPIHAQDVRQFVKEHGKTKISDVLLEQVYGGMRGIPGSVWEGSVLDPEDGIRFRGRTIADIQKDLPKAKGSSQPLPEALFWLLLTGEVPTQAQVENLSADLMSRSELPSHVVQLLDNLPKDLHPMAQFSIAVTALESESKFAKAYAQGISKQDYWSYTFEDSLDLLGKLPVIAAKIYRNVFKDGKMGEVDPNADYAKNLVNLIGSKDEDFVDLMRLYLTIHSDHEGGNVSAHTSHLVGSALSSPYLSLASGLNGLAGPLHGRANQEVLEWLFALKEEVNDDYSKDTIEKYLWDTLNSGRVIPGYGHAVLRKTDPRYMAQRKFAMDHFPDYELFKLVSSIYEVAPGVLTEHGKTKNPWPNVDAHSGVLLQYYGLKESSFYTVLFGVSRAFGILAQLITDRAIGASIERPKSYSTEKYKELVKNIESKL

## CC(Oc1cccc(Cl)c1)C(=O)Nc1nc(-c2ccccn2)cs1 (stereo unspecified)
  GFP fluorescence, higher = induction: inactive

## Cc1ccsc1/C=N/Nc1ncc(Cl)cc1Cl
  GFP fluorescence, higher = induction: inactive

## C=CCOc1ccccc1C(=O)/C=C1/C(=O)Nc2ccccc21
  GFP fluorescence, higher = induction: inactive

## CN(C)c1ccc(N=Cc2nc(-c3ccccc3)oc2OC(=O)c2cccc(Cl)c2)cc1
  GFP fluorescence, higher = induction: inactive

## O=C1C=C(c2ccc(Cl)cc2)C(=O)N1Nc1ccccc1
  GFP fluorescence, higher = induction: inactive

## O=[N+]([O-])c1ccc(S(=O)(=O)c2ccccc2)nc1
  GFP fluorescence, higher = induction: inactive

## O=C1Nc2ccccc2/C1=C\C(=O)c1ccccc1
  GFP fluorescence, higher = induction: inactive

## Cc1ccc(C(=O)NNC(=S)NC(=O)c2ccco2)cc1
  GFP fluorescence, higher = induction: inactive

## Oc1c(CN2CCN(c3ccccc3)CC2)cc(Br)c2cccnc12
  GFP fluorescence, higher = induction: inactive

## CCOc1ccc(N2C(=O)/C(=C\c3cccs3)C(=O)NC2=S)cc1
  GFP fluorescence, higher = induction: inactive

## Oc1ccc(N=Nc2ccccc2)o1
  GFP fluorescence, higher = induction: inactive

## COc1ccc(C(=O)NC(=S)NNC(=O)c2cnccn2)cc1
  GFP fluorescence, higher = induction: inactive

## COc1cccc2cc(-c3nc4ccccc4o3)c(=O)oc12
  GFP fluorescence, higher = induction: inactive

## COc1ccc([N+](=O)[O-])c(S(=O)(=O)c2ccc(Cl)cc2)n1
  GFP fluorescence, higher = induction: inactive

## O=C(O)c1ccccc1SC1CC(=O)N(c2ccc3c(c2)OCO3)C1=O (stereo unspecified)
  GFP fluorescence, higher = induction: inactive

## CCOc1cc(C=C2C(=O)c3ccccc3C2=O)ccc1OCC(=O)Nc1ccc(C)cc1
  GFP fluorescence, higher = induction: inactive

## Cc1ccc(C(=O)O)cc1N=Cc1cc(Br)cc(Br)c1O
  GFP fluorescence, higher = induction: inactive

## COc1ccc(/C=C/C(=O)c2cc(Br)ccc(=O)c2O)cc1
  GFP fluorescence, higher = induction: inactive

## COc1ccc(C2=CC3=C(Br)C(=O)C(C)(O)C(=O)C3=CO2)cc1 (stereo unspecified)
  GFP fluorescence, higher = induction: inactive

## C#CCOCCOCCOCCNc1nc(N2CCN(C(=O)CCCCCCCCCCNC(=O)[C@H](CCCCN)n3cc(CCCC(=O)O)nn3)CC2)nc(N2CCN(C(=O)CCCCCCCCCCNC(=O)[C@H](CCCN=C(N)N)n3cc(C[C@@H](C)CC)nn3)CC2)n1
  GFP fluorescence, higher = induction: inactive

## CC1=C(C)/C(=N\OS(=O)(=O)c2ccc(C)cc2)C=CC1=O
  GFP fluorescence, higher = induction: inactive

## CC(C)(C)n1nc(-c2ccc(Cl)cc2)c2c(N)ncnc21
  GFP fluorescence, higher = induction: inactive

## COC(=O)CCCC1=CC2=CC(=O)C(C)(OC(=O)CCc3ccccc3)C(=O)C2=CO1 (stereo unspecified)
  GFP fluorescence, higher = induction: inactive

## Cc1cc(=O)n2c3c(sc2n1)C(=O)N(Cc1ccccc1)C3=O
  GFP fluorescence, higher = induction: inactive

## O=C1ON=C(c2ccc(Cl)cc2)/C1=C/c1ccc(O)cc1
  GFP fluorescence, higher = induction: inactive

## O=C(NC(=S)NNC(=O)c1ccc(Cl)cc1Cl)c1cccnc1
  GFP fluorescence, higher = induction: inactive

## Cc1cc(C(=O)COC(=O)c2ccc[nH]c2=O)c(C)n1-c1ccccc1F
  GFP fluorescence, higher = induction: inactive

## CC(=O)N(C1=C(Cl)C(=O)c2ccccc2C1=O)C1CCCCC1
  GFP fluorescence, higher = induction: inactive

## CC(C)C[C@]1(c2ccccc2)ON(c2ccccc2C(F)(F)F)C1=O
  GFP fluorescence, higher = induction: inactive

## C=CCN1C(=O)/C(=C/c2ccc(-c3ccc(F)cc3)o2)SC1=S
  GFP fluorescence, higher = induction: inactive

## Cc1ccc(/C=C2/C(=O)ON=C2c2ccccc2)o1
  GFP fluorescence, higher = induction: inactive

## O=C1C2C3C=CC(CO)(O3)C2C(=O)N1c1ccccc1-c1ccccc1 (stereo unspecified)
  GFP fluorescence, higher = induction: inactive

## O=c1oc2cc(Oc3c([N+](=O)[O-])cc(C(F)(F)F)cc3[N+](=O)[O-])ccc2c2c1CCCC2
  GFP fluorescence, higher = induction: inactive

## CCCCC(=O)NNC(=S)NC(=O)c1ccc(C)cc1
Flow cytometry fluorescence
  EC50: 3.39 µM

## COc1ccc(C(=O)NC(=S)NNC(=O)c2cnccn2)cc1OC
  GFP fluorescence, higher = induction: inactive

## CN1CCN(C(=O)c2cc(COc3c(F)cccc3F)on2)CC1c1ccccc1 (stereo unspecified)
  GFP fluorescence, higher = induction: inactive

## Cc1ccc(C(c2cc(Cl)c3cccnc3c2O)N2CCN(C)CC2)cc1 (stereo unspecified)
  GFP fluorescence, higher = induction: inactive

## Cn1ncc2c(O/N=C(\N)c3ccc(C(C)(C)C)cc3)ncnc21
  GFP fluorescence, higher = induction: inactive

## CCN(CC)c1ccc2cc(-c3nc(-c4ccc(OC)cc4)cs3)c(=O)oc2c1
  GFP fluorescence, higher = induction: inactive

## O=C(OCC(=O)N1CCN(C(=O)c2ccco2)CC1)c1cc(-c2ccc(F)cc2)nc2ccccc12
  GFP fluorescence, higher = induction: inactive

## O=C(NNC(=S)NC(=O)C12CC3CC(CC(C3)C1)C2)c1ccncc1
  GFP fluorescence, higher = induction: inactive

## O=C1C(Cl)=C(NCCc2ccccc2)C(=O)N1CCc1ccccc1
  GFP fluorescence, higher = induction: inactive

## O=C(c1ccc([N+](=O)[O-])o1)N1CCN(c2nc3c(F)cc(F)cc3s2)CC1
  GFP fluorescence, higher = induction: inactive

## CS(=O)(=O)N1N=C(c2ccccc2)CC1c1ccc2c(c1)OCO2 (stereo unspecified)
  GFP fluorescence, higher = induction: inactive

## Oc1c(CN2CCCCC2)cc(Br)c2cccnc12
  GFP fluorescence, higher = induction: inactive

## N/C(Cc1ccc(Cl)cc1Cl)=N\OC(=O)c1ccccc1
  GFP fluorescence, higher = induction: inactive
